Test results reported in US5312816A, “Method of combatting osteoporosis in mammalian subjects, utilizing organic boron compounds” (priority 1993, dated 1994).

Assays:
Cf1 male mice [1] = experiment: Anti-inflammatory screen, Winter's test, 2% carrageenan hind foot; format: in vivo; conditions: Table XIV; unit inferred; unit assumed
Protocol: Anti-inflammatory Screen- Cf1 - male mice-Winter's Test 2% carrageenan S.C. plantar surface of hind foot, drugs administered @8 or 10 mg/kg I.P. 2X
Winter, C.A., et al, Proc. Soc.

Sprague Dawley Rats = experiment: Anti-inflammatory activity in Sprague Dawley rats; format: in vivo; conditions: Table IV; 8 mg/kg I.P.
Sprague Dawley male rats [2] = experiment: Chronic adjuvant arthritis screen, Mycobacterium butyricum; format: in vivo; conditions: Table XIV; unit not given
Acid phosphatase [3] = experiment: Mouse hepatic lysosomal acid phosphatase activity; format: biochemical; conditions: Table XV; mouse hepatic, 60 min incubation
Excerpt: (§1) 1. Cf1 male mouse hepatic 10% homogenates in 0.25M sucrose+0.001MEDTA,pH 7.2.
(§2) Lysosomal Enzymes - free and total [triton X-100].
(§3) 1. Acid phosphatase -beta glycerol-3-phosphate, pH 5.0, released IP 720 nm.
Acid phosphatase activity -

Cathepsin D [4] = molecular target: T1, Cathepsin D (Mus musculus, UniProt P18242); experiment: Mouse hepatic lysosomal cathepsin D activity; format: biochemical
T1 construct: azocasein assay pH 5.0
Excerpt: as §1, §2
(§4) 2. Acid Cathepsin D -azocasein-pH 5.0, hydrolytic azo-peptide produce 366 nm.
Cathepsin azo casein activity -

Aryl sulphatase [5] = experiment: Mouse hepatic lysosomal aryl sulphatase activity; format: biochemical; conditions: Table XV, 60 min incubation
Excerpt: as §1, §2
(§5) 3. Aryl sulphatase- p-nitrocatechol sulfate, pH
(§6) 5. 8 p-nitro-catechol product 510 nm.

Cathepsin D [6] = molecular target: T1, Cathepsin D; experiment: Mouse macrophage cathepsin D activity; format: cell-based; conditions: Table XVII; mouse macrophage, 60 min incubation; read-out: Cathepsin D pH 5.0 IC50
Excerpt: (§7) 3. Mouse macrophages J774A.1 BALB/c
as §4

Acid phosphatase [7] = experiment: Mouse macrophage acid phosphatase activity; format: cell-based; conditions: 60 min incubation, read-out: Acid Phosphatase IC50
Aryl sulphatase [8] = experiment: Mouse macrophage aryl sulphatase activity; format: cell-based; conditions: 60 min incubation, read-out: Aryl Sulphatase IC50
Trypsin [9] = experiment: Mouse macrophage trypsin (BAEE) activity; format: cell-based; conditions: 60 min incubation, read-out: Trypsin BAEE IC50
Elastase [10] = experiment: Mouse macrophage elastase activity; format: cell-based; conditions: 60 min incubation, read-out: Elastase IC50
[11] = test system: Prostaglandin cyclooxygenase; experiment: Mouse macrophage prostaglandin cyclooxygenase activity; format: cell-based; conditions: 60 min incubation, read-out: Prostaglandin Cyclooxygenase IC50
Excerpt: as §7
Prostaglandin synthetase purified beef seminal vesicle ^3 H arachidonic acid (86.2 Ci/mmol), tlc separation.

Trypsin [12] = experiment: Human osteoporosis fibroblasts trypsin (BAEE) activity; format: cell-based; conditions: Table XI; human osteoporosis fibroblasts, 60 min incubation; read-out: Trypsin BAEE IC50
Excerpt: (§8) 1. Trypsin- N-benzoyl-L-arginine ethyl ester pH 8.0, hydrolytic product 253 nm.

Cathepsin D [13] = molecular target: T2, Cathepsin D (Homo sapiens, UniProt P07339); experiment: Human osteoporosis fibroblasts cathepsin D (azo-casein) activity; format: cell-based; conditions: Table X; human osteoporosis fibroblasts, DMEM +10% FCS + P/S; read-out: Cathepsin D IC50
T2 construct: azocasein assay pH 5.0
Excerpt: Osteoporosis Human Fibroblast-CRL-1140, Be SA1

Acid phosphatase [14] = experiment: Human osteoporosis fibroblasts acid phosphatase activity; format: cell-based; conditions: Table X; human osteoporosis fibroblasts; read-out: Acid Phosphatase IC50
Excerpt: as §3

Aryl sulphatase [15] = experiment: Human osteoporosis fibroblasts aryl sulphatase activity; format: cell-based; conditions: Table X; human osteoporosis fibroblasts; read-out: Aryl Sulphatase IC50
Excerpt: as §5, §6

Elastase [16] = experiment: Human osteoporosis fibroblasts elastase activity; format: cell-based; conditions: Table XI; human osteoporosis fibroblasts, 60 min incubation; read-out: Elastase IC50
Excerpt: 2. Elastase- N-succinyl-L-alanyl-L-alanine-p-nitroanilide, pH 8.0, p-nitro anilide 410 nm.

[17] = test system: Prostaglandin cyclooxygenase; experiment: Human osteoporosis fibroblasts prostaglandin cyclooxygenase activity; format: cell-based; conditions: Table XI, 60 min incubation, read-out: Prostaglandin Cyclooxygense IC50
Cf1 male mice [18] = experiment: Writhing reflex, 0.6% acetic acid; format: in vivo; conditions: Mus musculus, ip; Table IV
in vivo = conditions: mouse, Table 1, N=6
Protocol: Amine borane compounds (0 to 100 mg/kg) were administered to CF1 male mice as a single injection with six mice for each dosage. Mice were weighed daily and the number of deaths was recorded each day for a 14 day period. The LD50 value was determined by the procedure of S.C. Gad and C.S. Weil, "Statistics for Toxicologists" in Principles and Methods of Toxicology, A.W. Hayes, Ed., 2nd Edition, P 435-483 Raven Press, New York 1982.

Cathepsin [19] = molecular target: T3, Cathepsin (Rattus norvegicus, UniProt P24268); experiment: Rat PMNs cathepsin activity; format: cell-based; conditions: pH 5; 5 × 10^-6 M, N=6; read-out: Rat PMNs Cathep.
T3 construct: azocasein assay pH 5.0
Excerpt: 2. PMNs-polymorphonuclear neutrophils-rat peritoneal cavity 0.5% oyster glycogen.
as §4

Cf1 male mice [20] = experiment: Writhing reflex, 0.6% acetic acid; format: in vivo; conditions: Table XIV; unit inferred; unit assumed
Protocol: Writhing reflex- Cf1 -male mice- 0.6% acetic acid I.P. drugs administered @20 mg/kg/ I.P. 20 min. later - the # of stretches/10 min.
Hendershot, L.C., et al, J.

Sprague Dawley male rats [21] = experiment: Anti-pleurisy screen, Evans blue + carrageenan; format: in vivo; conditions: Table XIV; unit not given
Trypsin [22] = experiment: Mouse hepatic trypsin activity; format: biochemical; conditions: Table XVI; 60 min incubation; read-out: Mouse Hepatic Trypsin IC50
Excerpt: as §1, §8

Cf1 male mice [23] = experiment: Hot plate tail flick test; format: in vivo; conditions: Table XIV; unit not given
Pg. cyclooxygenase = molecular target: T4, Pg. cyclooxygenase (Sus scrofa, UniProt A0A287ANF9); experiment: Porcine seminal vesicles Pg. cyclooxygenase; format: biochemical; conditions: Table XVI; 60 min incubation
T4 construct: Porcine Seminal; from tissue; the methods section prints beef seminal vesicle

Commercial Collagenase = experiment: Commercial collagenase (type not stated); format: biochemical; conditions: Table XVI; 60 min incubation
Excerpt: 3. Collagenase I, Clostridium histolyticum, bone, skin, tendon, blood vessel, dentine, GI. substrate: rat collagen, N-[propionate-2-3-^3 H] propionylated measured as dpm released.
4. Collagenase II, Clostridium histolyticum, cartilage collagen.

5'-Lipoxygenase = molecular target: T5, 5'-Lipoxygenase (Homo sapiens, UniProt P09917); experiment: Human leukocyte 5'-lipoxygenase; format: cell-based
T5 construct: human leukocyte tissue culture cells; endogenous in cells; host or cells: Human peripheral leukocytes, RPMI-1788
T5 sequence (P09917 1-674): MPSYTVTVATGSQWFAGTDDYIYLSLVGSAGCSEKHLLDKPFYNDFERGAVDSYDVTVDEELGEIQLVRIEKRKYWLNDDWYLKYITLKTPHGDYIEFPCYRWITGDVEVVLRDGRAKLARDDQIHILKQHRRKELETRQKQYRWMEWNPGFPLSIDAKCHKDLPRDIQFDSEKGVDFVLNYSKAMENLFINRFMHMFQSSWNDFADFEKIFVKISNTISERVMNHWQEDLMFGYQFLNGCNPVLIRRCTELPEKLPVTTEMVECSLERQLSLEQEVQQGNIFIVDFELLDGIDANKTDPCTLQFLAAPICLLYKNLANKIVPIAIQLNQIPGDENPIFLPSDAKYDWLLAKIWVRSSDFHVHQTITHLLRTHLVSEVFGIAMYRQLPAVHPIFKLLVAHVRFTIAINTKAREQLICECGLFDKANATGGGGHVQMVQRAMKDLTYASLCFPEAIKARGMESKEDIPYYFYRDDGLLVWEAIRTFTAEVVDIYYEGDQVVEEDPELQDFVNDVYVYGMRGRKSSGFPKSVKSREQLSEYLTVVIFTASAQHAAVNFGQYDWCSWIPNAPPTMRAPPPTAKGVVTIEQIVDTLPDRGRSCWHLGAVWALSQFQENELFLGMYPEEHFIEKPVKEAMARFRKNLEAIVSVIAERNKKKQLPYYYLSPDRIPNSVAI

Cathepsin [24] = experiment: Human leukocyte cathepsin; format: cell-based; conditions: Table XIX; read-out: Human Leukocyte IC50 (head gives no enzyme; beside Cathepsin D)
Excerpt: 5. Human peripheral leukocytes, RPMI-1788
as §4

[25] = Table XV, mouse hepatic, 60 min incubation, read-out: Cathepsin D IC50
[26] = Table VII, mouse macrophage cultured cells

T1 sequence (P18242 65-410): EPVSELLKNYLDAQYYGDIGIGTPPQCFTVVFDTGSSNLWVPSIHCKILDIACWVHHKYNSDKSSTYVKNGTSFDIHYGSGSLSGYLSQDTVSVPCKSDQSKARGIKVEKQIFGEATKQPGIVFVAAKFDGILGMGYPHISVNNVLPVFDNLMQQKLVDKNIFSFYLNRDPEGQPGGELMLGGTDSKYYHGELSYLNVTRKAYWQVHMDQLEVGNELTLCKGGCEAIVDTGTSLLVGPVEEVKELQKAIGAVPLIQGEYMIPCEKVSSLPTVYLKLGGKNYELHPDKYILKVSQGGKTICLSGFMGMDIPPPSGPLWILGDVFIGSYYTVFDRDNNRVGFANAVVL
T4 sequence (A0A287ANF9 25-600): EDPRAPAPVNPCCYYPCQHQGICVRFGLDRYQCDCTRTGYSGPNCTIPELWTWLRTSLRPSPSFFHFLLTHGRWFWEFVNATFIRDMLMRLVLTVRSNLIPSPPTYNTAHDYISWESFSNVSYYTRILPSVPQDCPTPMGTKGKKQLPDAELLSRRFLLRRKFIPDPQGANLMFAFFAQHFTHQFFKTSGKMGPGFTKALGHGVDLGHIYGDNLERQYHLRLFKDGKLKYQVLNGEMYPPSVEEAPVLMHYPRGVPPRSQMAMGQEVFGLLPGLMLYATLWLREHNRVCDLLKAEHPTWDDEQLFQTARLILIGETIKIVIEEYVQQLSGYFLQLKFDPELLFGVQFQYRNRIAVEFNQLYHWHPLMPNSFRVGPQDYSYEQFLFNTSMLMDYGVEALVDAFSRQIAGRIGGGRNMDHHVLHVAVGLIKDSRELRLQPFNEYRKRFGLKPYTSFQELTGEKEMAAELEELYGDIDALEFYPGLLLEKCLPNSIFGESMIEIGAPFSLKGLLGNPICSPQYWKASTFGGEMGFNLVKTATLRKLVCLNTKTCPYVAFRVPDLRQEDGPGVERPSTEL
T3 sequence (P24268 65-407): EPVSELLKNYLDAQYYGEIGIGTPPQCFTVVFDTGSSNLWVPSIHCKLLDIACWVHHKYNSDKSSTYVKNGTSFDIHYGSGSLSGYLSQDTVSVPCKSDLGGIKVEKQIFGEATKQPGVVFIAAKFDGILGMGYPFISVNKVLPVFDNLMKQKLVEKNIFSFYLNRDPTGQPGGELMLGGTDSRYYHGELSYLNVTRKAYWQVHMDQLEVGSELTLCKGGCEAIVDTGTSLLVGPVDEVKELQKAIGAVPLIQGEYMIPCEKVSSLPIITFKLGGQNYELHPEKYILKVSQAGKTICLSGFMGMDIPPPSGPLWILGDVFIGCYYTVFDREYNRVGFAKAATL
T2 sequence (P07339 65-412): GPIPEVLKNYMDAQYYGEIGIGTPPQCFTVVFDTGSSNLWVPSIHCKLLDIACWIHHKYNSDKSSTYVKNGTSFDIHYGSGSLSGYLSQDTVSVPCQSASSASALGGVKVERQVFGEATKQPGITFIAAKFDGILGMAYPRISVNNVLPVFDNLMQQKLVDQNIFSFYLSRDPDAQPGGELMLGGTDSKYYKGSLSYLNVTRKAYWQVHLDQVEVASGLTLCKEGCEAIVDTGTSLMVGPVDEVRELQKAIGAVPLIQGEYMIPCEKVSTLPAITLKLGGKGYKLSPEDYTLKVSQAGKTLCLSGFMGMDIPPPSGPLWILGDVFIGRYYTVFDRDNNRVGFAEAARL

SMILES	Anti-Inflammation Cf1 Mice (Cf1 male mice [1]) [%]	Anti-Arthritis Rats (Sprague Dawley male rats [2])	IC50 (Acid phosphatase [3]) [µM]	IC50 (Cathepsin D [4]; [25]) [µM]	IC50 (Aryl sulphatase [5]) [µM]	IC50 (Cathepsin D [6]) [µM]	IC50 (Acid phosphatase [7]; Table XVII, mouse macrophage) [µM]	IC50 (Aryl sulphatase [8]; Table XVII, mouse macrophage) [µM]	IC50 (Trypsin [9]; Table XVIII, mouse macrophage) [µM]	IC50 (Elastase [10]; Table XVIII, mouse macrophage) [µM]	IC50 ([11]; Table XVIII, mouse macrophage) [µM]	Writhing Reflex Mice (Cf1 male mice [20]) [%]	Anti-Pleurisy Rats (Sprague Dawley male rats [21])	IC50 (Trypsin [22]) [µM]	Tail Flick Mice (Cf1 male mice [23])	IC50 (Pg. cyclooxygenase) [µM]	IC50 (Commercial Collagenase) [µM]	also measured
BC(=O)O [Compound 13]	41.7	55.2	4	6.19	4.34	4.57	0.82	5.43	2.25	3.07	15.6							Anti-Inflammatory Activity Sprague Dawley Rats (Sprague Dawley Rats): 55 % Control; IC50 (Acid phosphatase [7]; [26]): 0.82 µM; IC50 (Aryl sulphatase [8]; [26]): 5.43 µM; IC50 (Trypsin [9]; Table VIII, mouse macrophages): 2.25 µM; IC50 (Elastase [10]; Table VIII, mouse macrophages): 3.07 µM; IC50 ([11]; Table VIII, mouse macrophages): 6.79 µM; IC50 (Trypsin [12]): 7.51 µM; IC50 (Cathepsin D [13]): 1.19 µM; IC50 (Acid phosphatase [14]): 6.5 µM; IC50 (Aryl sulphatase [15]): 8.19 µM; IC50 (Elastase [16]): 3.01 µM; IC50 [17]: 5.51 µM; response vs control in vivo at 20 mg/kg (Cf1 male mice [18]): 17.4%
CCOC(=O)[BH2-][N+](C)(C)C [Compound 6]																		LD50 at 336 h (in vivo): 140 mg/kg; activity at 5 µM (Cathepsin [19]): 16%
CC#N.CO.C[N+](C)(C)[BH2-]C(=O)[O-].C[N+](C)(C)[BH2-]C(=O)[O-].C[N+](C)(C)[BH2-]C(=O)[O-].C[N+](C)(C)[BH2-]C(=O)[O-].C[N+](C)(C)[BH2-]C(=O)[O-].C[N+](C)(C)[BH2-]C(=O)[O-].O.O=[N+]([O-])[O-].[Cr+3].[Cr+3].[Cr+3].[O-2] [Compound 26]	58.5	78.0	6.99	5.47	7.73	2.49	2.48	1.2	2.1	5.09	1.62	85.4	40.0	9.96	184	2.14	567	
CC(C)=O.C[N+](C)(C)[BH2-]C(=O)[O-].O=[N+]([O-])[O-].[Ca+2] [Compound 28]	65		7.66	4.58	3.05	2.38	3.08	2.38	2.38	5.93	1.92	66.4	50.1	9.99	169	2.57	495	
[BH3-][NH+]1CCOCC1 [Compound 1]																		LD50 at 336 h (in vivo): 475 mg/kg; activity at 5 µM (Cathepsin D [4]; pH 5, read-out: Mouse Liver Cathep.): 107%; activity at 5 µM (Cathepsin [19]): 93%
C[N+](C)(C)[BH2-]C(=O)[O-].C[N+](C)(C)[BH2-]C(=O)[O-].NCCN.NCCN.[Cl-].[Co+3] [Compound 27]	49.6	70.0	4.25	7.8	5.89	3.83	2.92	1.95	1.38	9.77	2.09	66.2	96.3	9.88	150	4.01	522	
CC(C)[Si](OC[C@H]1O[C@@H](n2ccc(N)[n+]([BH2-]C#N)c2=O)C[C@@H]1O[Si](C(C)C)(C(C)C)C(C)C)(C(C)C)C(C)C [Compound 40]																		IC50 (Cathepsin D [4]; read-out: Mouse Hepatic Cathepsin D IC50, Table XIX): 27.2 µM; IC50 (5'-Lipoxygenase): 3.88 µM; IC50 (Cathepsin [24]): 6.12 µM
